Patent US8530382B2, “Anthranilic diamide compositions for propagule coating” (E I du Pont de Nemours and Company, priority 2009, dated 2013)

How the values were obtained:
[1] = tested on: 2nd instar larvae of Spodoptera frugiperda; experiment: Laboratory test, 2nd instar larvae of Spodoptera frugiperda on maize leaves; type: in vivo; details: within 72 h
[2] = tested on: 2nd instar larvae of Spodoptera frugiperda; experiment: Laboratory test, 2nd instar larvae of Spodoptera frugiperda on treated soybean leaves; type: in vivo; details: within 96 h

SMILES	Concentration in leaf tissue needed to achieve 100% mortality [1]	Concentration in leaf tissue resulting in 50% mortality [1]	Concentration needed to achieve 50% mortality, relative to the concentration of Compound 2 [2]
CNC(=O)c1cc(Cl)cc(C)c1NC(=O)c1cc(Br)nn1-c1ncccc1Cl [Compound 2, 3-bromo-N-[4-chloro-2-methyl-6-[(methylamino)carbonyl]phenyl]-1-(3-chloro-2-pyridinyl)-1H-pyrazole-5-carboxamide]	0.037 μg per g of tissue	0.033 μg per g of leaf tissue	–
CNC(=O)c1cc(C#N)cc(C)c1NC(=O)c1cc(Br)nn1-c1ncccc1Cl [Compound 1, 3-bromo-1-(3-chloro-2-pyridinyl)-N-[4-cyano-2-methyl-6-[(methylamino)carbonyl]phenyl]-1H-pyrazole-5-carboxamide]	–	–	4-5 times greater
